# In publication PMC11266321 (EJNMMI Radiopharmacy and Chemistry, 2024):
# “And” between values parts separate entries of the source, which are not always exact repeats. Equal entries are not always repeated.
# Experiments:
# [1] = Tissue distribution of radioactivity in mice; type: in vivo, mouse; settings: mean ± SD n = 4
# Protocol: (§1) [^11C]MMP (8.1 MBq/17 pmol) was injected intravenously into 8-week-old male ddY mice (37.8–42.4 g). The tracer-injected mice were housed individually in filter-paper-lined animal-rearing cages until the time of euthanasia. Mice were euthanized by cervical dislocation at 1, 5, 15, 30, 60, and 90 min after injection (n = 4 each). Blood was collected by heart puncture, and the tissues were harvested. Radioactivity excreted into urine was recovered from the cage floor and by cystocentesis from the urinary bladder. The samples were measured for ^11C radioactivity with an auto-gamma counter (Hidex-AMG, Turku, Finland) and weighed. Tissue uptake of ^11C was expressed as the percentage of injected dose per organ (%ID/organ) or the percentage of injected dose per gram of tissue (%ID/g). The tissue distribution data were extrapolated to an adult male phantom using the %kg/g method (Blau [1975]). The radiation absorbed dose and effective dose for human adults were estimated using OLINDA/EXM software (Vanderbilt University, Nashville, TN) (Stabin et al. [2005]). Effective dose was estimated using the risk-weighting factor of ICRP Publication 103 (ICRP [2007]).
# [2] = Radiation dosimetry for human adults estimated from mouse data (OLINDA/EXM)
# Protocol: as §1
# [3] = pH 5.36
# [4] = human adults, estimated from mouse data
structure (smiles),measurement,setting,value
"CC(C)NC(C)Cc1ccc([11CH3])cc1 (centres unmarked) [[^11C]MMP, N-isopropyl-4-[^11C]methylamphetamine]","Injected dose/organ (%), Bladder",[1]; 30 min after i.v. injection,2.40 ± 1.59 %ID/organ
same,"Injected dose/organ (%), Bladder + urine",[1]; 30 min after i.v. injection,32.99 ± 3.90 %ID/organ
same,"Injected dose/organ (%), Brain",[1]; 30 min after i.v. injection,1.09 ± 0.11 %ID/organ
same,"Injected dose/organ (%), Heart",[1]; 30 min after i.v. injection,0.21 ± 0.01 %ID/organ
same,"Injected dose/organ (%), Kidney",[1]; 30 min after i.v. injection,4.79 ± 1.06 %ID/organ
same,"Injected dose/organ (%), Large intestine",[1]; 30 min after i.v. injection,1.59 ± 0.61 %ID/organ
same,"Injected dose/organ (%), Liver",[1]; 30 min after i.v. injection,12.97 ± 1.05 %ID/organ
same,"Injected dose/organ (%), Lung",[1]; 30 min after i.v. injection,0.79 ± 0.09 %ID/organ
same,"Injected dose/organ (%), Pancreas",[1]; 30 min after i.v. injection,0.83 ± 0.03 %ID/organ
same,"Injected dose/organ (%), Small intestine",[1]; 30 min after i.v. injection,3.66 ± 0.59 %ID/organ
same,"Injected dose/organ (%), Spleen",[1]; 30 min after i.v. injection,0.35 ± 0.07 %ID/organ
same,"Injected dose/organ (%), Stomach",[1]; 30 min after i.v. injection,1.76 ± 0.50 %ID/organ
same,"Injected dose/organ (%), Testis",[1]; 30 min after i.v. injection,0.52 ± 0.11 %ID/organ
same,"Injected dose/organ (%), Urine",[1]; 30 min after i.v. injection,30.59 ± 5.33 %ID/organ
same,"Injected dose/g tissue (%), Blood",[1]; 60 min after i.v. injection,0.56 ± 0.23 %ID/g
same,"Injected dose/g tissue (%), Bone",[1]; 60 min after i.v. injection,0.49 ± 0.04 %ID/g
same,"Injected dose/g tissue (%), Brain",[1]; 60 min after i.v. injection,1.01 ± 0.09 %ID/g
same,"Injected dose/g tissue (%), Heart",[1]; 60 min after i.v. injection,0.56 ± 0.22 %ID/g
same,"Injected dose/g tissue (%), Kidney",[1]; 60 min after i.v. injection,3.73 ± 3.22 %ID/g
same,"Injected dose/g tissue (%), Large intestine",[1]; 60 min after i.v. injection,0.61 ± 0.27 %ID/g
same,"Injected dose/g tissue (%), Liver",[1]; 60 min after i.v. injection,2.93 ± 0.85 %ID/g
same,"Injected dose/g tissue (%), Lung",[1]; 60 min after i.v. injection,1.73 ± 0.45 %ID/g
same,"Injected dose/g tissue (%), Muscle",[1]; 60 min after i.v. injection,0.51 ± 0.24 %ID/g
same,"Injected dose/g tissue (%), Pancreas",[1]; 60 min after i.v. injection,2.52 ± 0.24 %ID/g
same,"Injected dose/g tissue (%), Small intestine",[1]; 60 min after i.v. injection,1.88 ± 0.59 %ID/g
same,"Injected dose/g tissue (%), Spleen",[1]; 60 min after i.v. injection,1.47 ± 0.44 %ID/g
same,"Injected dose/g tissue (%), Stomach",[1]; 60 min after i.v. injection,1.27 ± 0.89 %ID/g
same,"Injected dose/g tissue (%), Testis",[1]; 60 min after i.v. injection,1.85 ± 0.35 %ID/g
same,"Injected dose/organ (%), Bladder",[1]; 60 min after i.v. injection,0.23 ± 0.12 %ID/organ
same,"Injected dose/organ (%), Bladder + urine",[1]; 60 min after i.v. injection,53.94 ± 7.66 %ID/organ
same,"Injected dose/organ (%), Brain",[1]; 60 min after i.v. injection,0.41 ± 0.06 %ID/organ
same,"Injected dose/organ (%), Heart",[1]; 60 min after i.v. injection,0.11 ± 0.03 %ID/organ
same,"Injected dose/organ (%), Kidney",[1]; 60 min after i.v. injection,2.37 ± 2.03 %ID/organ
same,"Injected dose/organ (%), Large intestine",[1]; 60 min after i.v. injection,0.85 ± 0.51 %ID/organ
same,"Injected dose/organ (%), Liver",[1]; 60 min after i.v. injection,6.29 ± 1.96 %ID/organ
same,"Injected dose/organ (%), Lung",[1]; 60 min after i.v. injection,0.36 ± 0.10 %ID/organ
same,"Injected dose/organ (%), Pancreas",[1]; 60 min after i.v. injection,0.47 ± 0.04 %ID/organ
same,"Injected dose/organ (%), Small intestine",[1]; 60 min after i.v. injection,3.41 ± 0.77 %ID/organ
same,"Injected dose/organ (%), Spleen",[1]; 60 min after i.v. injection,0.17 ± 0.02 %ID/organ
same,"Injected dose/organ (%), Stomach",[1]; 60 min after i.v. injection,0.82 ± 0.44 %ID/organ
same,"Injected dose/organ (%), Testis",[1]; 60 min after i.v. injection,0.53 ± 0.15 %ID/organ
same,"Injected dose/organ (%), Urine",[1]; 60 min after i.v. injection,53.71 ± 7.68 %ID/organ
same,"Injected dose/g tissue (%), Blood",[1]; 90 min after i.v. injection,0.23 ± 0.09 %ID/g
same,"Injected dose/g tissue (%), Bone",[1]; 90 min after i.v. injection,0.59 ± 0.14 %ID/g
same,"Injected dose/g tissue (%), Brain",[1]; 90 min after i.v. injection,0.45 ± 0.08 %ID/g
same,"Injected dose/g tissue (%), Heart",[1]; 90 min after i.v. injection,0.35 ± 0.14 %ID/g
same,"Injected dose/g tissue (%), Kidney",[1]; 90 min after i.v. injection,6.64 ± 3.76 %ID/g
same,"Injected dose/g tissue (%), Large intestine",[1]; 90 min after i.v. injection,0.61 ± 0.16 %ID/g
same,"Injected dose/g tissue (%), Liver",[1]; 90 min after i.v. injection,1.94 ± 0.88 %ID/g
same,"Injected dose/g tissue (%), Lung",[1]; 90 min after i.v. injection,1.03 ± 0.13 %ID/g
same,"Injected dose/g tissue (%), Muscle",[1]; 90 min after i.v. injection,0.42 ± 0.18 %ID/g
same,"Injected dose/g tissue (%), Pancreas",[1]; 90 min after i.v. injection,1.25 ± 0.34 %ID/g
same,"Injected dose/g tissue (%), Small intestine",[1]; 90 min after i.v. injection,1.34 ± 1.24 %ID/g
same,"Injected dose/g tissue (%), Spleen",[1]; 90 min after i.v. injection,0.56 ± 0.17 %ID/g
same,"Injected dose/g tissue (%), Stomach",[1]; 90 min after i.v. injection,1.52 ± 1.28 %ID/g
same,"Injected dose/g tissue (%), Testis",[1]; 90 min after i.v. injection,1.47 ± 0.44 %ID/g
same,"Injected dose/organ (%), Bladder",[1]; 90 min after i.v. injection,2.32 ± 1.75 %ID/organ
same,"Injected dose/organ (%), Bladder + urine",[1]; 90 min after i.v. injection,58 %ID/organ and 57.89 ± 3.18 %ID/organ
same,"Injected dose/organ (%), Brain",[1]; 90 min after i.v. injection,0.21 ± 0.07 %ID/organ
same,"Injected dose/organ (%), Heart",[1]; 90 min after i.v. injection,0.07 ± 0.03 %ID/organ
same,"Injected dose/organ (%), Kidney",[1]; 90 min after i.v. injection,4.56 ± 2.94 %ID/organ
same,"Injected dose/organ (%), Large intestine",[1]; 90 min after i.v. injection,0.77 ± 0.16 %ID/organ
same,"Injected dose/organ (%), Liver",[1]; 90 min after i.v. injection,4.85 ± 2.18 %ID/organ
same,"Injected dose/organ (%), Lung",[1]; 90 min after i.v. injection,0.23 ± 0.03 %ID/organ
same,"Injected dose/organ (%), Pancreas",[1]; 90 min after i.v. injection,0.25 ± 0.05 %ID/organ
same,"Injected dose/organ (%), Small intestine",[1]; 90 min after i.v. injection,2.47 ± 2.43 %ID/organ
same,"Injected dose/organ (%), Spleen",[1]; 90 min after i.v. injection,0.08 ± 0.03 %ID/organ
same,"Injected dose/organ (%), Stomach",[1]; 90 min after i.v. injection,0.84 ± 0.56 %ID/organ
same,"Injected dose/organ (%), Testis",[1]; 90 min after i.v. injection,0.49 ± 0.17 %ID/organ
same,"Injected dose/organ (%), Urine",[1]; 90 min after i.v. injection,55.57 ± 3.04 %ID/organ
same,Effective dose,[2]; administration of 740 MBq,4.0 mSv
same,"highest absorbed dose, urinary bladder wall",[2]; administration of 740 MBq,42.6 mGy
same,"Absorbed dose, Adrenal",[2]; [4],2.21 µGy/MBq
same,"Absorbed dose, Brain",[2]; [4],3.67 µGy/MBq
same,"Absorbed dose, Breast",[2]; [4],1.34 µGy/MBq
same,"Absorbed dose, Gallbladder wall",[2]; [4],2.43 µGy/MBq
same,"Absorbed dose, Heart wall",[2]; [4],3.02 µGy/MBq
same,"Absorbed dose, Kidney",[2]; [4],8.6 µGy/MBq and 8.56 µGy/MBq
same,"Absorbed dose, Liver",[2]; [4],4.78 µGy/MBq
same,"Absorbed dose, Lower large intestine wall",[2]; [4],4.03 µGy/MBq
same,"Absorbed dose, Lungs",[2]; [4],7.3 µGy/MBq and 7.29 µGy/MBq
same,"Absorbed dose, Muscle",[2]; [4],2.70 µGy/MBq
same,"Absorbed dose, Osteogenic cells",[2]; [4],2.41 µGy/MBq
same,"Absorbed dose, Ovaries",[2]; [4],3.09 µGy/MBq
same,"Absorbed dose, Pancreas",[2]; [4],5.5 µGy/MBq and 5.53 µGy/MBq
same,"Absorbed dose, Red marrow",[2]; [4],2.12 µGy/MBq
same,"Absorbed dose, Skin",[2]; [4],1.29 µGy/MBq
same,"Absorbed dose, Small intestine",[2]; [4],4.51 µGy/MBq
same,"Absorbed dose, Spleen",[2]; [4],3.57 µGy/MBq
same,"Absorbed dose, Stomach wall",[2]; [4],3.59 µGy/MBq
same,"Absorbed dose, Testes",[2]; [4],2.66 µGy/MBq
same,"Absorbed dose, Thymus",[2]; [4],1.70 µGy/MBq
same,"Absorbed dose, Thyroid",[2]; [4],1.62 µGy/MBq
same,"Absorbed dose, Total body",[2]; [4],2.65 µGy/MBq
same,"Absorbed dose, Upper large intestine wall",[2]; [4],3.32 µGy/MBq
same,"Absorbed dose, Urinary bladder wall",[2]; [4],57.6 µGy/MBq
same,"Absorbed dose, Uterus",[2]; [4],4.51 µGy/MBq
same,"Radiochemical purity (stability test), mean of three runs",[3],99.7 ± 0.2%
